The values below come from patent US9682963B2, “Pyridine derivatives as soft rock inhibitors” (Amakem NV, priority 2013, dated 2017).

The term EC50 denotes the midpoint of the concentration-response curve.

Molecules are shown by their SMILES.

The subject of data set [1] is MLC-T18/S19 phosphorylation in A7r5 cells (endogenous ROCK). Kind of data set: MLC phosphorylation assay (ELISA) in A7r5 cells. The data set is classed as cell-based. The conditions noted are these: Rattus norvegicus, serum-free medium, phospho-MLC-T18/S19 ELISA, read-out: EC50 MLC-PP. The procedure: Rat smooth muscle cell line A7r5 is used. The endogenous expression of ROCK results in a constitutive phosphorylation of the regulatory myosin light chain at T18/S19. A7r5 cells were plated in DMEM supplemented with 10% FCS in multiwall cell culture plates. After serum starvation overnight, cells were incubated with compounds in serum-free medium.
Quantification of MLC-T18/S19 phosphorylation is assessed in 96 well-plates via ELISA using a phospho-MLC-T18/S19 specific antibody and a secondary detection antibody. Raw data were converted into percent substrate phosphorylation relative to high controls, which were set to 100%. EC50 values were determined using GraphPad Prism 5.01 software using a nonlinear regression curve fit with variable hill slope.
In general terms: In an ELISA, binding on a coated surface is turned into a signal by an enzyme label.

A short description of data set [2]: Stability assay in human plasma. The data set is classed as in vitro ADME. As to conditions: 1 μM in human plasma, LC-MS/MS; read-out: t½ human plasma. The procedure:
Compounds are incubated at a concentration of 1 μM in human (or animal) plasma. Samples are taken at fixed time points and the remnant of compound is determined by LC-MS/MS after protein precipitation. Half life in table C.2.1 is expressed in minutes.

Data set [3] is described as follows: Stability towards drug metabolizing enzymes in lung S9. As to conditions: human, lung S9 fraction, lung S9 with NADPH, UDPGA, PAPS and GSH, read-out: t½ human lung S9. In kind it is in vitro ADME. The procedure: A 1 μM solution of the ROCK inhibitors is incubated with a reaction mixture containing lung S9 (EDTA-free) as well as the cofactors NADPH, UDPGA, PAPS and GSH. Samples are collected at 0, 15, 30 and 60 minutes post incubation. Negative control samples incubated with ROCK inhibitors and S9 fraction in the absence of cofactors are run in parallel. By using LC-MS/MS analysis, the percent of ROCK compounds remaining at each time point, the metabolic half-life of the ROCK compounds (expressed in minutes in table C.2.2) and the metabolic half-life of the control compounds are determined.

A further data set concerns male BALB/c mice. The experiment in a line: Acute LPS lung challenge model, BALF cell counts. As to conditions: 0.1 and 0.01 mg/kg intratracheally 0.5 hr before LPS; BALF at 24 hrs; versus dexamethasone 1 mg/kg oral. In kind it is in vivo, mouse. The procedure:
FIG. 1: Anti-inflammatory activity of Cpd4 in an acute LPS lung challenge model (mouse). Data is provided as bronchoalveolar lavage fluid (BALF) cell count (10^3/μl)±SEM. WBC: White Blood Cell. NEUT: Neutrophil. Dex: Dexamethasone control.
Selected compounds of the invention were evaluated in vivo in an acute LPS lung challenge model. Groups of 6 male BALB/c mice were used for each tested dose and for positive and negative controls. Under anesthesia with gas anesthetics (isoflurane), test substances and vehicle (0.9% NaCl, 1 mL/kg) were administered intratracheally (IT) to test animals 0.5 hr prior to challenge with ˜80 μg/kg of E. coli lipopolysaccharide (LPS, Sigma, serotype 055:B5, in sterile saline, 2 μg in 20 μL per mouse intratracheally). Dexamethasone, the positive control, at 1 mg/kg in 2% Tween 80 was given orally to test animals one hour before LPS challenge. Mice were anaesthetized with isoflurane at 24 hrs after LPS challenge, 0.5 mL of phosphate buffered saline (PBS, pH 7.4) was instilled into the lung twice through a tracheal cannula, after which about a total of 0.6˜0.8 mL of bronchoalveolar lavage fluid (BALF) was obtained. Total cell and neutrophils counts in BALF were then determined and one-way ANOVA followed by Dunnett's test was used to analyze difference between the vehicle control and treated groups. Significant difference is considered at P<0.05.

The nature of data set [4]: Stability in human intestinal tissue homogenate. In kind it is in vitro ADME. The conditions noted are these: 40 mg/ml human intestinal homogenate, read-out: t½ (min) human. The procedure: A 1 μM solution of the ROCK inhibitors is incubated with human intestinal tissue homogenate (final concentration: 40 mg/ml) Samples are collected at 0, 20 and 60 minutes post incubation. By using LC-MS/MS analysis, the percent of ROCK compounds remaining at each time point, the metabolic half-life of the ROCK compounds (expressed in minutes in table C.2.3) and the metabolic half-life of control compounds are determined.

A short description of data set [5]: Stability in mouse intestinal homogenate. The conditions noted are these: 40 mg/ml mouse intestinal homogenate, read-out: t½ (min) mouse. In kind it is in vitro ADME.

As for `NCc1ccc(C(=O)Nc2ccncc2F)cc1-c1cccc(C(=O)Nc2ccc(SC3COC(=O)C3)cc2)c1` (stereo not shown) [Cpd 11, 6-(aminomethyl)-N^3-(3-fluoropyridin-4-yl)-N^3′-(4-((2-oxotetrahydrofuran-4-yl)thio)phenyl)-[1,1′-biphenyl]-3,3′-dicarboxamide], the EC50 in data set [1] is less than 0.1 µM. In addition, the half-life at 1 μM in data set [2] is less than 20 min.

Turning to `NCc1ccc(C(=O)Nc2ccncc2F)cc1-c1cccc(NC(=O)c2ccc(NC3CCOC3=O)cc2)c1` (stereo not shown) [Cpd 13, 6-(aminomethyl)-N-(3-fluoropyridin-4-yl)-3′-(4-((2-oxotetrahydrofuran-3-yl)amino)benzamido)-[1,1′-biphenyl]-3-carboxamide], the EC50 in data set [1] is less than 0.1 µM. The half-life at 1 μM in data set [2] is less than 20 min; in data set [3] it was greater than 60 min.

On to `NCc1ccc(C(=O)Nc2ccncc2F)cc1-c1cccc(C(=O)Nc2ccc(OC3CCOC3=O)cc2)c1` (stereo not shown) [Cpd 3, 6-(aminomethyl)-N^3-(3-fluoropyridin-4-yl)-N^3′-(4-((2-oxotetrahydrofuran-3-yl)oxy)phenyl)-[1,1′-biphenyl]-3,3′-dicarboxamide], for which the EC50 in data set [1] lay in the range of 0.1 to 1 µM. In addition, the half-life at 1 μM in data set [2] was less than 20 min.

As for `NCc1ccc(C(=O)Nc2ccncc2F)cc1-c1cccc(C(=O)Nc2ccc(SC3CCOC3=O)cc2)c1` (stereo not shown) [Cpd 6, 6-(aminomethyl)-N^3-(3-fluoropyridin-4-yl)-N^3′-(4-((2-oxotetrahydrofuran-3-yl)thio)phenyl)-[1,1′-biphenyl]-3,3′-dicarboxamide], the EC50 in data set [1] was less than 0.1 µM. The half-life at 1 μM in data set [2] is less than 20 min; in data set [3] it was greater than 60 min.

For `NCc1ccc(C(=O)Nc2ccncc2F)cc1-c1cccc(C(=O)Nc2ccc(SC3CCOC3=O)cc2F)c1` (stereo not shown) [Cpd 12, 6-(aminomethyl)-N^3-(3-fluoropyridin-4-yl)-N^3′-(2-fluoro-4-((2-oxotetrahydrofuran-3-yl)thio)phenyl)-[1,1'-biphenyl]-3,3′-dicarboxamide], the EC50 in data set [1] is less than 0.1 µM. In addition, in data set [2], the half-life at 1 μM is less than 20 min.

Consider `CC1CC(Sc2ccc(NC(=O)c3cccc(-c4cc(C(=O)Nc5ccncc5F)ccc4CN)c3)cc2)C(=O)O1` (stereo not shown) [Cpd 9, 6-(aminomethyl)-N^3-(3-fluoropyridin-4-yl)-N^3′-(4-((5-methyl-2-oxotetrahydrofuran-3-yl)thio)phenyl)-[1,1′-biphenyl]-3,3′-dicarboxamide], for which the EC50 in data set [1] was less than 0.1 µM. Moreover, the half-life at 1 μM in data set [2] was less than 20 min.

For the molecule `NCc1ccc(C(=O)Nc2ccncc2F)cc1-c1cccc(NC(=O)c2ccc(SC3CCOC3=O)cc2)c1` (stereo not shown) [Cpd 4, 6-(aminomethyl)-N-(3-fluoropyridin-4-yl)-3′-(4-((2-oxotetrahydrofuran-3-yl)thio)benzamido)-[1,1′-biphenyl]-3-carboxamide], the half-maximal effective concentration (EC50) in data set [1] was less than 0.1 µM. In addition, the “anti-inflammatory activity (BALF WBC and neutrophil count)” value in the data set with male BALB/c mice was “equivalent to the dexamethasone control”. The half-life at 1 μM was less than 20 min in data set [2] and greater than 60 min in data set [3].

Take `CN(c1ccc(NC(=O)c2cccc(-c3cc(C(=O)Nc4ccncc4F)ccc3CN)c2)cc1)C1CCOC1=O` (stereo not shown) [Cpd 7, 6-(aminomethyl)-N^3-(3-fluoropyridin-4-yl)-N^3′-(4-(methyl(2-oxotetrahydrofuran-3-yl)amino)phenyl)-[1,1′-biphenyl]-3,3′-dicarboxamide]: the concentration giving a half-maximal response (EC50) in data set [1] is less than 0.1 µM. The half-life at 1 μM in data set [2] was less than 20 min; in data set [3], greater than 60 min; in data set [4], greater than 120 min; in data set [5], greater than 120 min.

In the case of `NCc1ccc(C(=O)Nc2ccncc2F)cc1-c1cccc(C(=O)Nc2ccc(CNC3CCOC3=O)cc2)c1` (stereo not shown) [Cpd 1, 6-(aminomethyl)-N^3-(3-fluoropyridin-4-yl)-N^3′-(4-(((2-oxotetrahydrofuran-3-yl)amino)methyl)phenyl)-[1,1′-biphenyl]-3,3′-dicarboxamide], in data set [1], the concentration giving a half-maximal response (EC50) lay in the range of 0.1 to 1 µM. In addition, the half-life at 1 μM was less than 20 min in data set [2] and greater than 60 min in data set [3].

Take `NCc1ccc(C(=O)Nc2ccncc2F)cc1-c1cccc(C(=O)Nc2cccc(SC3CCOC3=O)c2)c1` (stereo not shown) [Cpd 8, 6-(aminomethyl)-N^3-(3-fluoropyridin-4-yl)-N^3′-(3-((2-oxotetrahydrofuran-3-yl)thio)phenyl)-[1,1′-biphenyl]-3,3′-dicarboxamide]: the EC50 in data set [1] fell in the range of 0.1 to 1 µM. Moreover, the half-life at 1 μM in data set [2] is less than 20 min.

For `NCc1ccc(C(=O)Nc2ccncc2F)cc1-c1cccc(C(=O)Nc2ccc(NC3CCOC3=O)cc2)c1` (stereo not shown) [Cpd 5, 6-(aminomethyl)-N^3-(3-fluoropyridin-4-yl)-N^3′-(4-((2-oxotetrahydrofuran-3-yl)amino)phenyl)-[1,1′-biphenyl]-3,3′-dicarboxamide], the EC50 in data set [1] was less than 0.1 µM. Besides, the half-life at 1 μM was less than 20 min in data set [2], greater than 60 min in data set [3] and greater than 120 min in data set [5].

For `NCc1ccc(C(=O)Nc2ccncc2F)cc1-c1cccc(C(=O)Nc2ccc(SCC3CCOC3=O)cc2)c1` (stereo not shown) [Cpd 2, 6-(aminomethyl)-N^3-(3-fluoropyridin-4-yl)-N^3′-(4-(((2-oxotetrahydrofuran-3-yl)methyl)thio)phenyl)-[1,1′-biphenyl]-3,3′-dicarboxamide], the EC50 in data set [1] was less than 0.1 µM. The half-life at 1 μM in data set [2] was less than 20 min; in data set [3] it was greater than 60 min; in data set [4] it was greater than 120 min; in data set [5] it was greater than 120 min.
